This note sets out measurements from US20030060472A1, “Novel substituted nitrocatechols, their use in the treatment of some central and peripheral nervous system disorders and pharmaceutical compositions containing them” (priority 2001, published 2003).

For one assay, the system named is Brain COMT. In words: Ex vivo COMT activity in mice brain homogenates after administration by gastric tube. The following applies: for Brain COMT (% of control) 1 h / Brain COMT (% of control) 6 h: mice brain homogenates, means ± S.E.M. of 4-8; for Brain COMT (% of control) 1 h: 1 h after administration by gastric tube; for Brain COMT (% of control) 6 h: 6 h after administration by gastric tube; for Duration of COMT inhibition and activity in the brain: conclusion from the mice study.

In the next assay the target is T1, COMT (Homo sapiens, UniProt P21964).
T1 construct: O-methylationof adrenaline in intact SK-N-SH cells; host or cells: SK-N-SH cells
T1 sequence (P21964 1-271): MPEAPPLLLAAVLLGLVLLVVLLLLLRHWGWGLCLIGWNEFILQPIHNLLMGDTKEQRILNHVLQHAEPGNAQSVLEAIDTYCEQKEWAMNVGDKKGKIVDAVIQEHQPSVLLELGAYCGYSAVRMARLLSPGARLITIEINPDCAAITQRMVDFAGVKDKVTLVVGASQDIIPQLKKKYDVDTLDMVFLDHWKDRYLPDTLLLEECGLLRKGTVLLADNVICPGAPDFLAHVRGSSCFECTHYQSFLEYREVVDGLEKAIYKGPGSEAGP
The assay is described as follows: COMT activity (O-methylation of adrenaline to metanephrine) in intact SK-N-SH cells. Type of assay: cell-based. As to conditions: test compound 100 nM, means ± SEM, n = 4-8.

The test system of another assay is Liver COMT. In words: Ex vivo COMT activity in mice liver homogenates after administration by gastric tube. As to conditions: for Liver COMT (% of control) 1 h / Liver COMT (% of control) 6 h: mice liver homogenates, means ± S.E.M. of 4-8; for Liver COMT (% of control) 1 h: 1 h after administration by gastric tube; for Liver COMT (% of control) 6 h: 6 h after administration by gastric tube; for Potency upon liver COMT compared with brain COMT: mice, after oral administration.

On to `CC1CC(C)CN(CC(=O)c2cc(O)c(O)c([N+](=O)[O-])c2)C1.Cl` (stereo not shown) [Compound 12, 1-(3,4-Dihydroxy-5-nitro-phenyl)-2-(3,5-dimethyl-piperidin-1-yl)-ethanone hydrochloride], for which, in the assay with Brain COMT, the “Brain COMT (% of control) 1 h” value is recorded as 32.0 ± 2.0 % of control and the “Brain COMT (% of control) 6 h” value is 84.0 ± 6.0 % of control.
For `Cl.N#CC1(c2ccccc2)CCN(CCC(=O)c2cc(O)c(O)c([N+](=O)[O-])c2)CC1` [Compound 15, 1-[3-(3,4-Dihydroxy-5-nitro-phenyl)-3-oxo-propyl]-4-phenyl-piperidine-4-carbonitrile hydrochloride], the “COMT activity (% of control)” value at COMT was 2.9 ± 0.3 % of control. Further, in the assay on Liver COMT, the “Liver COMT (% of control) 1 h” value is given as 51.7 ± 5.9 % of control and the “Liver COMT (% of control) 6 h” value is 37.9 ± 8.4 % of control. For the same compound, in the assay on Brain COMT, the “Brain COMT (% of control) 1 h” value is reported as 93.0 ± 9.0 % of control and the “Brain COMT (% of control) 6 h” value was 122.0 ± 9.0 % of control.
`O=C(COc1ccc2ccccc2c1)c1cc(O)c(O)c([N+](=O)[O-])c1` [Compound 10, 1-(3,4-Dihydroxy-5-nitro-phenyl)-2-(naphthalen-2-yloxy)-ethanone]: the “Potency upon liver COMT compared with brain COMT” value with Liver COMT is on record as “much more potent upon liver COMT than brain COMT”. For the same compound, the “Duration of COMT inhibition and activity in the brain” value in the assay with Brain COMT is reported as “long acting COMT inhibitor with limited activity in the brain”.
For `CCN(CC)C(C)C(=O)c1cc(O)c(O)c([N+](=O)[O-])c1.Cl` (stereo not shown) [Compound 7, 2-Diethylamino-1-(3,4-dihydroxy-5-nitro-phenyl)-propan-1-one hydrochloride], the “COMT activity (% of control)” value at COMT was 9.0 ± 0.2 % of control. For the same compound, in the assay with Liver COMT, the “Liver COMT (% of control) 1 h” value was 38.4 ± 2.8 % of control and the “Liver COMT (% of control) 6 h” value is 57.1 ± 4.9 % of control. Further, in the assay with Brain COMT, the “Brain COMT (% of control) 1 h” value was 74.0 ± 12.0 % of control and the “Brain COMT (% of control) 6 h” value is given as 126.0 ± 8.0 % of control.
Consider `CC1CN(CC(=O)c2cc(O)c(O)c([N+](=O)[O-])c2)CC(C)O1.Cl` (stereo not shown) [Compound 11, 1-(3,4-Dihydroxy-5-nitro-phenyl)-2-(2,6-dimethyl-morpholin-4-yl)-ethanone hydrochloride], for which, in the assay on Brain COMT, the “Brain COMT (% of control) 1 h” value is 80.0 ± 5.0 % of control and the “Brain COMT (% of control) 6 h” value was 103.0 ± 7.0 % of control.
As to `Cl.Cl.O=C(CCN1CCN(c2cccc(C(F)(F)F)c2)CC1)c1cc(O)c(O)c([N+](=O)[O-])c1` [Compound 18, 1-(3,4-Dihydroxy-5-nitro-phenyl)-3-[4-(3-trifluoromethyl-phenyl)-piperazin-1-yl]-propan-1-one dihydrochloride], the “Potency upon liver COMT compared with brain COMT” value in the assay on Liver COMT is “much more potent upon liver COMT than brain COMT”. Also, the “Duration of COMT inhibition and activity in the brain” value in the assay with Brain COMT was “long acting COMT inhibitor with limited activity in the brain”.
For `CC1CCCCN1CC(=O)c1cc(O)c(O)c([N+](=O)[O-])c1.Cl` (stereo not shown) [Compound 6, 1-(3,4-Dihydroxy-5-nitro-phenyl)-2-(2-methyl-piperidin-1-yl)-ethanone hydrochloride], in the assay on Brain COMT, the “Brain COMT (% of control) 1 h” value is given as 37.0 ± 3.3 % of control and the “Brain COMT (% of control) 6 h” value is on record as 66.0 ± 2.6 % of control.
With `Cl.O=C(CN1CCCCCC1)c1cc(O)c(O)c([N+](=O)[O-])c1` [Compound 1, 2-Azepan-1-yl-1-(3,4-dihydroxy-5-nitro-phenyl)-ethanone hydrochloride], in the assay on Brain COMT, the “Brain COMT (% of control) 1 h” value is on record as 45.0 ± 15.0 % of control and the “Brain COMT (% of control) 6 h” value is recorded as 102.0 ± 19.0 % of control.
As for `Cl.O=C(CC(c1ccccc1)N1CCCCC1)c1cc(O)c(O)c([N+](=O)[O-])c1` (stereo not shown) [Compound 3, 1-(3,4-Dihydroxy-5-nitro-phenyl)-3-phenyl-3-piperidin-1-yl-propan-1-one hydrochloride], the “Potency upon liver COMT compared with brain COMT” value in the assay with Liver COMT is given as “much more potent upon liver COMT than brain COMT”. Also, the “Duration of COMT inhibition and activity in the brain” value in the assay with Brain COMT was “long acting COMT inhibitor with limited activity in the brain”.
Take `Cl.O=C(CCN1CCCCCCC1)c1cc(O)c(O)c([N+](=O)[O-])c1` [Compound 16, 3-Azocan-1-yl-1-(3,4-dihydroxy-5-nitro-phenyl)-propan-1-one hydrochloride]: the “Potency upon liver COMT compared with brain COMT” value with Liver COMT was “equally potent in inhibiting liver and brain COMT activity”.
For the compound `Cl.O=C(CC(c1ccccc1)N1CCOCC1)c1cc(O)c(O)c([N+](=O)[O-])c1` (stereo not shown) [Compound 5, 1-(3,4-Dihydroxy-5-nitro-phenyl)-3-morpholin-4-yl-3-phenyl-propan-1-one hydrochloride], the “Potency upon liver COMT compared with brain COMT” value in the assay on Liver COMT was “equally potent in inhibiting liver and brain COMT activity”.
Take `Cl.O=C(CCN1CCCCC1)c1cc(O)c(O)c([N+](=O)[O-])c1` [Compound 2, 1-(3,4-Dihydroxy-5-nitro-phenyl)-3-piperidin-1-yl-propan-1-one hydrochloride]: the “Potency upon liver COMT compared with brain COMT” value in the assay on Liver COMT was “much more potent upon liver COMT than brain COMT”. Also, the “Duration of COMT inhibition and activity in the brain” value with Brain COMT is listed as “long acting COMT inhibitor with limited activity in the brain”.
